From the supplement of paper PMC11451515

Columns and labels:
Conditions in all cases: 48 h
SEM cells [1] = assay: AUC of viability dose-response curve (% viability x log10 dose units); higher = less sensitive
Outline: (§1)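 Seeding of medium-adapted leukemia cells was at 500 or 1000 cells/well in 1536-well plates, followed by 48 h at 37°C with library compounds in DMSO at 11 threefold doses from 47 μM to 0.79 nM. CellTiter-Glo One luminescence was normalised per plate to DMSO and cell-free wells and fitted as a four-parameter log-logistic function of log10 dose. Area under the curve was integrated by trapezoidal rule, with curves exceeding full viability scaled and curves failing quality control removed.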

NOMO1 [2] = assay: as above
Outline: as §1

P12-Ichikawa [3] = assay: as above
Outline: as §1

SEM cells [4] = assay: cell viability relative to DMSO control; higher = less cytotoxic
Outline: (§2)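 Viability values are per-plate percentages of DMSO wells, with background from cell-free wells. Library compounds in DMSO were pin-dosed, in an 11-point threefold series from 47 μM to 0.79 nM, onto NOMO1 or SEM (500 cells/well) or P12-Ichikawa (1000 cells/well) leukemia cells in 1536-well plates (5 μl). Those cells had been adapted for at least four passages in each medium, and CellTiter-Glo One luminescence was read after 48 h at 37°C.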

NOMO1 [5] = assay: as above
Outline: as §2

P12-Ichikawa [6] = assay: as above
Outline: as §2

OC[C@H]1O[C@@H]2[C@@H](OC\3=N\C(=N)\C=C/[N@@]23)[C@@H]1O
AUC of viability dose-response curve
Conditions	NOMO1 [2]	P12-Ichikawa [3]	SEM cells [1]
HPLM + 10% dialyzed FBS	348	248	277
RPMI 5 mM glucose + 10% FBS	374	241	264
RPMI 5 mM glucose + 10% dialyzed FBS	344	251	223

cell viability [%]
Conditions	NOMO1 [5]	P12-Ichikawa [6]	SEM cells [4]
HPLM + 10% dialyzed FBS, 0.000781 µM	103	113	94
HPLM + 10% dialyzed FBS, 0.00234 µM	129	119	107
HPLM + 10% dialyzed FBS, 0.00702 µM	125	107	93.1
HPLM + 10% dialyzed FBS, 0.0211 µM	114	105	97.8
HPLM + 10% dialyzed FBS, 0.0632 µM	130	95.6	84.4
HPLM + 10% dialyzed FBS, 0.19 µM	129	44.3	47.9
HPLM + 10% dialyzed FBS, 0.569 µM	109	24.7	34.6
HPLM + 10% dialyzed FBS, 1.71 µM	62.6	13.5	28.1
HPLM + 10% dialyzed FBS, 5.12 µM	30.4	10.7	21.9
HPLM + 10% dialyzed FBS, 15.4 µM	19.8	7.98	16.1
HPLM + 10% dialyzed FBS, 46.1 µM	6.81	8.28	14.5
RPMI 5 mM glucose + 10% FBS, 0.000781 µM	119	116	105
RPMI 5 mM glucose + 10% FBS, 0.00234 µM	122	118	116
RPMI 5 mM glucose + 10% FBS, 0.00702 µM	112	118	102
RPMI 5 mM glucose + 10% FBS, 0.0211 µM	111	105	117
RPMI 5 mM glucose + 10% FBS, 0.0632 µM	119	93.2	87
RPMI 5 mM glucose + 10% FBS, 0.19 µM	125	47.3	46.9
RPMI 5 mM glucose + 10% FBS, 0.569 µM	130	22.5	41.9
RPMI 5 mM glucose + 10% FBS, 1.71 µM	103	12.1	23.3
RPMI 5 mM glucose + 10% FBS, 5.12 µM	33.7	8.81	16
RPMI 5 mM glucose + 10% FBS, 15.4 µM	22	7.28	13.8
RPMI 5 mM glucose + 10% FBS, 46.1 µM	8.44	6.52	13.5
RPMI 5 mM glucose + 10% dialyzed FBS, 0.000781 µM	116	109	85.3
RPMI 5 mM glucose + 10% dialyzed FBS, 0.00234 µM	122	122	86.2
RPMI 5 mM glucose + 10% dialyzed FBS, 0.00702 µM	120	114	99.8
RPMI 5 mM glucose + 10% dialyzed FBS, 0.0211 µM	106	117	81.1
RPMI 5 mM glucose + 10% dialyzed FBS, 0.0632 µM	118	92.4	59.8
RPMI 5 mM glucose + 10% dialyzed FBS, 0.19 µM	125	53.2	37.8
RPMI 5 mM glucose + 10% dialyzed FBS, 0.569 µM	90.5	28.6	22.4
RPMI 5 mM glucose + 10% dialyzed FBS, 1.71 µM	67.1	17	14.8
RPMI 5 mM glucose + 10% dialyzed FBS, 5.12 µM	23.3	11.6	13
RPMI 5 mM glucose + 10% dialyzed FBS, 15.4 µM	16.8	9.01	10.7
RPMI 5 mM glucose + 10% dialyzed FBS, 46.1 µM	9.9	7.41	8.17

CCOc1ccc(Cc2cc([C@@H]3O[C@H](CO)[C@@H](O)[C@H](O)[C@H]3O)ccc2Cl)cc1
AUC of viability dose-response curve
Conditions	NOMO1 [2]	P12-Ichikawa [3]	SEM cells [1]
HPLM + 10% dialyzed FBS	470	459	465
RPMI 5 mM glucose + 10% FBS	464	466	450
RPMI 5 mM glucose + 10% dialyzed FBS	476	469	468

cell viability [%]
Conditions	NOMO1 [5]	P12-Ichikawa [6]	SEM cells [4]
HPLM + 10% dialyzed FBS, 0.000781 µM	–	123	113
HPLM + 10% dialyzed FBS, 0.00234 µM	–	124	108
HPLM + 10% dialyzed FBS, 0.00702 µM	–	120	120
HPLM + 10% dialyzed FBS, 0.0211 µM	–	84.8	107
HPLM + 10% dialyzed FBS, 0.0632 µM	–	125	126
HPLM + 10% dialyzed FBS, 0.19 µM	–	134	125
HPLM + 10% dialyzed FBS, 0.569 µM	–	129	117
HPLM + 10% dialyzed FBS, 1.71 µM	–	123	121
HPLM + 10% dialyzed FBS, 5.12 µM	–	127	115
HPLM + 10% dialyzed FBS, 15.4 µM	–	126	128
HPLM + 10% dialyzed FBS, 46.1 µM	–	123	113
RPMI 5 mM glucose + 10% FBS, 0.000781 µM	114	–	102
RPMI 5 mM glucose + 10% FBS, 0.00234 µM	133	–	110
RPMI 5 mM glucose + 10% FBS, 0.00702 µM	124	–	110
RPMI 5 mM glucose + 10% FBS, 0.0211 µM	125	–	89.5
RPMI 5 mM glucose + 10% FBS, 0.0632 µM	138	–	106
RPMI 5 mM glucose + 10% FBS, 0.19 µM	128	–	124
RPMI 5 mM glucose + 10% FBS, 0.569 µM	128	–	112
RPMI 5 mM glucose + 10% FBS, 1.71 µM	136	–	121
RPMI 5 mM glucose + 10% FBS, 5.12 µM	124	–	121
RPMI 5 mM glucose + 10% FBS, 15.4 µM	133	–	115
RPMI 5 mM glucose + 10% FBS, 46.1 µM	129	–	118
RPMI 5 mM glucose + 10% dialyzed FBS, 0.000781 µM	–	–	116
RPMI 5 mM glucose + 10% dialyzed FBS, 0.00234 µM	–	–	104
RPMI 5 mM glucose + 10% dialyzed FBS, 0.00702 µM	–	–	128
RPMI 5 mM glucose + 10% dialyzed FBS, 0.0211 µM	–	–	85.6
RPMI 5 mM glucose + 10% dialyzed FBS, 0.0632 µM	–	–	117
RPMI 5 mM glucose + 10% dialyzed FBS, 0.19 µM	–	–	124
RPMI 5 mM glucose + 10% dialyzed FBS, 0.569 µM	–	–	129
RPMI 5 mM glucose + 10% dialyzed FBS, 1.71 µM	–	–	122
RPMI 5 mM glucose + 10% dialyzed FBS, 5.12 µM	–	–	119
RPMI 5 mM glucose + 10% dialyzed FBS, 15.4 µM	–	–	117
RPMI 5 mM glucose + 10% dialyzed FBS, 46.1 µM	–	–	105
